Read-outs that look alike come from different tables or passages of the source.
Assays:
[1] = system: Fusarium graminearum (ear rot of maize); type: cell-based; conditions: solo, 48 hrs
[2] = system: Fusarium graminearum (ear rot of maize); type: cell-based; conditions: solo, 48 hrs; remark: listed apart in the source

Compound | Observed control in % ([1]; 0.004 ppm (mg a.i./liter final medium)) [%] | Observed control in % ([1]; 0.008 ppm) [%] | Observed control in % ([1]; 0.016 ppm) [%] | Observed control in % ([1]; 0.031 ppm) [%] | Observed control in % ([1]; 0.063 ppm) [%] | Observed control in % ([1]; 0.125 ppm) [%] | Observed control in % ([1]; 0.25 ppm) [%] | Observed control in % ([1]; 0.5 ppm) [%] | Observed control in % ([1]; 1.0 ppm) [%] | Observed control in % ([1]; 2.0 ppm) [%] | Observed control in % ([2]; 0.008 ppm) [%] | Observed control in % ([2]; 0.25 ppm) [%] | Observed control in % ([2]; 0.5 ppm) [%] | Observed control in % ([2]; 2.0 ppm) [%]
CCCN(CCOc1c(Cl)cc(Cl)cc1Cl)C(=O)n1ccnc1 [A, prochloraz] | 0 | 3 | 6 | 11 | 25 | 86 | 94 | 96 | 96 | 96 |  |  |  | 
CC1(C)CCC(Cc2ccc(Cl)cc2)C1(O)Cn1cncn1 (stereo not drawn) [B, metconazole] |  | 3 |  |  |  |  | 93 | 95 |  | 96 | 3 | 93 | 95 | 96

Reference: patent US20110105576A1 (priority 2008, published 2011)
